This assay relates to C. albicans SN250, C. albicans, C. krusei, C. glabrata, C. tropicalis, A. fumigatus 91, 1163, 1100. The assay is described as follows: Average MIC over the tested strains. The class given is cell-based. The conditions noted are these: for MIC (Average Minimum Inhibition Concentration): Table 7, C16 amide AmB variants; for Average MIC: Table 12, C16 amides of C2'epiAmB.

With `CC1C=CC=CC=CC=CC=CC=CC=CC(OC2OC(C)C(O)C(N)C2O)CC2OC(O)(CC(O)CC(O)C(O)CCC(O)CC(O)CC(=O)OC(C)C(C)C1O)CC(O)C2C(=O)NCCNC(=N)N` (stereo not drawn) [DV], the “MIC (Average Minimum Inhibition Concentration)” value stood at 0.406 µM. In the case of `CC1C=CC=CC=CC=CC=CC=CC=CC(OC2OC(C)C(O)C(N)C2O)CC2OC(O)(CC(O)CC(O)C(O)CCC(O)CC(O)CC(=O)OC(C)C(C)C1O)CC(O)C2C(=O)N1CCNC(=O)C1` (stereo not drawn) [FH], the “MIC (Average Minimum Inhibition Concentration)” value stood at 0.531 µM. Still for that read-out and setting: the same measure for `CC1C=CC=CC=CC=CC=CC=CC=CC(OC2OC(C)C(O)C(N)C2O)CC2OC(O)(CC(O)CC(O)C(O)CCC(O)CC(O)CC(=O)OC(C)C(C)C1O)CC(O)C2C(=O)NC1C(O)OC(CO)C(O)C1O` (mixture of isomers) [FK]: 0.211 µM. For the molecule `CC1C=CC=CC=CC=CC=CC=CC=CC(OC2OC(C)C(O)C(N)C2O)CC2OC(O)(CC(O)CC(O)C(O)CCC(O)CC(O)CC(=O)OC(C)C(C)C1O)CC(O)C2C(=O)NC1COCC1O` (stereo not drawn) [BP], the “Average MIC” value is 1.250 µM.

`CC1C=CC=CC=CC=CC=CC=CC=CC(OC2OC(C)C(O)C(N)C2O)CC2OC(O)(CC(O)CC(O)C(O)CCC(O)CC(O)CC(=O)OC(C)C(C)C1O)CC(O)C2C(=O)NC1CNC1=O` (stereo not drawn) [ES]: the “MIC (Average Minimum Inhibition Concentration)” value was 0.484 µM. The same measure, in the same setting: in the case of `CC1C=CC=CC=CC=CC=CC=CC=CC(OC2OC(C)C(O)C(N)C2O)CC2OC(O)(CC(O)CC(O)C(O)CCC(O)CC(O)CC(=O)OC(C)C(C)C1O)CC(O)C2C(=O)NCB(O)O` (stereo not drawn) [EG] it was 0.430 µM; in that of `CC1C=CC=CC=CC=CC=CC=CC=CC(OC2OC(C)C(O)C(N)C2O)CC2OC(O)(CC(O)CC(O)C(O)CCC(O)CC(O)CC(=O)OC(C)C(C)C1O)CC(O)C2C(=O)NCCn1ncnn1` (stereo not drawn) [DN], 0.391 µM; in that of `CC1C=CC=CC=CC=CC=CC=CC=CC(OC2OC(C)C(O)C(N)C2O)CC2OC(O)(CC(O)CC(O)C(O)CCC(O)CC(O)CC(=O)OC(C)C(C)C1O)CC(O)C2C(=O)NC1C(O)OCC(O)C1O` (stereo not drawn) [FU], 0.289 µM. Same read-out and setting: the same measure for `CC1C=CC=CC=CC=CC=CC=CC=CC(OC2OC(C)C(O)C(N)C2O)CC2OC(O)(CC(O)CC(O)C(O)CCC(O)CC(O)CC(=O)OC(C)C(C)C1O)CC(O)C2C(=O)NC1CC(N)C(O)C(O)C1O` (stereo not drawn) [FI]: 0.172 µM; for `CC1C=CC=CC=CC=CC=CC=CC=CC(OC2OC(C)C(O)C(N)C2O)CC2OC(O)(CC(O)CC(O)C(O)CCC(O)CC(O)CC(=O)OC(C)C(C)C1O)CC(O)C2C(=O)NC(CO)C(N)=O` (stereo not drawn) [GF]: 0.324 µM; for `CC1C=CC=CC=CC=CC=CC=CC=CC(OC2OC(C)C(O)C(N)C2O)CC2OC(O)(CC(O)CC(O)C(O)CCC(O)CC(O)CC(=O)OC(C)C(C)C1O)CC(O)C2C(=O)NCC(C)(C)C(N)=O` (stereo not drawn) [EC]: 0.422 µM. As for `CC1C=CC=CC=CC=CC=CC=CC=CC(OC2OC(C)C(O)C(N)C2O)CC2OC(O)(CC(O)CC(O)C(O)CCC(O)CC(O)CC(=O)OC(C)C(C)C1O)CC(O)C2C(=O)NCCNS(C)(=O)=O` (stereo not drawn) [EO], the “MIC (Average Minimum Inhibition Concentration)” value came out at 0.469 µM. On the same count and under the same terms, the same measure for `CC1C=CC=CC=CC=CC=CC=CC=CC(OC2OC(C)C(O)C(N)C2O)CC2OC(O)(CC(O)CC(O)C(O)CCC(O)CC(O)CC(=O)OC(C)C(C)C1O)CC(O)C2C(=O)NC1C(O)C(O)OC(CO)C1O` (stereo not drawn) [FT]: 0.289 µM; for `CC1C=CC=CC=CC=CC=CC=CC=CC(OC2OC(C)C(O)C(N)C2O)CC2OC(O)(CC(O)CC(O)C(O)CCC(O)CC(O)CC(=O)OC(C)C(C)C1O)CC(O)C2C(=O)NC1CC1` (stereo not drawn) [EI]: 0.438 µM; for `CC1C=CC=CC=CC=CC=CC=CC=CC(OC2OC(C)C(O)C(N)C2O)CC2OC(O)(CC(O)CC(O)C(O)CCC(O)CC(O)CC(=O)OC(C)C(C)C1O)CC(O)C2C(=O)NC1COC1` (stereo not drawn) [DX]: 0.422 µM.

For the molecule `CC1C=CC=CC=CC=CC=CC=CC=CC(OC2OC(C)C(O)C(N)C2O)CC2OC(O)(CC(O)CC(O)C(O)CCC(O)CC(O)CC(=O)OC(C)C(C)C1O)CC(O)C2C(=O)NC1CC1` (stereo not drawn) [BV], the “Average MIC” value was found to be 3.063 µM. For the molecule `CC1C=CC=CC=CC=CC=CC=CC=CC(OC2OC(C)C(O)C(N)C2O)CC2OC(O)(CC(O)CC(O)C(O)CCC(O)CC(O)CC(=O)OC(C)C(C)C1O)CC(O)C2C(=O)NCC(O)CO` (stereo not drawn) [GH], the “MIC (Average Minimum Inhibition Concentration)” value came to 0.329 µM. The same measure, in the same setting: the same measure for `CC1C=CC=CC=CC=CC=CC=CC=CC(OC2OC(C)C(O)C(N)C2O)CC2OC(O)(CC(O)CC(O)C(O)CCC(O)CC(O)CC(=O)OC(C)C(C)C1O)CC(O)C2C(=O)NCC1OC(n2cnc3c(=O)[nH]c(N)nc32)C(O)C1O` (stereo not drawn) [DM]: 0.391 µM; for `CNC(=O)C1C(O)CC2(O)CC(O)CC(O)C(O)CCC(O)CC(O)CC(=O)OC(C)C(C)C(O)C(C)C=CC=CC=CC=CC=CC=CC=CC(OC3OC(C)C(O)C(N)C3O)CC1O2` (stereo not drawn) [GI]: 0.336 µM; for `CC1C=CC=CC=CC=CC=CC=CC=CC(OC2OC(C)C(O)C(N)C2O)CC2OC(O)(CC(O)CC(O)C(O)CCC(O)CC(O)CC(=O)OC(C)C(C)C1O)CC(O)C2C(=O)NCC(C)(C)F` (stereo not drawn) [EN]: 0.469 µM. Take `CC1C=CC=CC=CC=CC=CC=CC=CC(OC2OC(C)C(O)C(N)C2O)CC2OC(O)(CC(O)CC(O)C(O)CCC(O)CC(O)CC(=O)OC(C)C(C)C1O)CC(O)C2C(=O)NCCOC(F)F` (stereo not drawn) [EW]: the “MIC (Average Minimum Inhibition Concentration)” value was 0.500 µM. Still for that read-out and setting: in the case of `CC1C=CC=CC=CC=CC=CC=CC=CC(OC2OC(C)C(O)C(N)C2O)CC2OC(O)(CC(O)CC(O)C(O)CCC(O)CC(O)CC(=O)OC(C)C(C)C1O)CC(O)C2C(=O)NC1CN(C(N)=O)C1` (stereo not drawn) [FB] it was 0.516 µM; in that of `CC1C=CC=CC=CC=CC=CC=CC=CC(OC2OC(C)C(O)C(N)C2O)CC2OC(O)(CC(O)CC(O)C(O)CCC(O)CC(O)CC(=O)OC(C)C(C)C1O)CC(O)C2C(=O)NC1CC(CO)C(O)C1O` (stereo not drawn) [FS], 2.81 µM. With `CC1C=CC=CC=CC=CC=CC=CC=CC(OC2OC(C)C(O)C(N)C2O)CC2OC(O)(CC(O)CC(O)C(O)CCC(O)CC(O)CC(=O)OC(C)C(C)C1O)CC(O)C2C(=O)NC1CCC(N)CC1` (stereo not drawn) [DU], the “MIC (Average Minimum Inhibition Concentration)” value was found to be 0.406 µM.

For `CC1C=CC=CC=CC=CC=CC=CC=CC(OC2OC(C)C(O)C(N)C2O)CC2OC(O)(CC(O)CC(O)C(O)CCC(O)CC(O)CC(=O)OC(C)C(C)C1O)CC(O)C2C(=O)NCCN(C)C` (stereo not drawn) [DA], the “MIC (Average Minimum Inhibition Concentration)” value is 0.352 µM. Still for that read-out and setting: the same measure for `CC(NC(=O)C1C(O)CC2(O)CC(O)CC(O)C(O)CCC(O)CC(O)CC(=O)OC(C)C(C)C(O)C(C)C=CC=CC=CC=CC=CC=CC=CC(OC3OC(C)C(O)C(N)C3O)CC1O2)C(N)=O` (stereo not drawn) [GJ]: 0.336 µM; for `CC1C=CC=CC=CC=CC=CC=CC=CC(OC2OC(C)C(O)C(N)C2O)CC2OC(O)(CC(O)CC(O)C(O)CCC(O)CC(O)CC(=O)OC(C)C(C)C1O)CC(O)C2C(=O)NCCOCCN` (stereo not drawn) [DP]: 0.391 µM. Take `CC1C=CC=CC=CC=CC=CC=CC=CC(OC2OC(C)C(O)C(N)C2O)CC2OC(O)(CC(O)CC(O)C(O)CCC(O)CC(O)CC(=O)OC(C)C(C)C1O)CC(O)C2C(=O)NC1COCC1O` (stereo not drawn) [EU]: the “MIC (Average Minimum Inhibition Concentration)” value is 0.500 µM. Still for that read-out and setting: the same measure for `CC1C=CC=CC=CC=CC=CC=CC=CC(OC2OC(C)C(O)C(N)C2O)CC2OC(O)(CC(O)CC(O)C(O)CCC(O)CC(O)CC(=O)OC(C)C(C)C1O)CC(O)C2C(=O)NC1CCCC1O` (mixture of isomers) [EV]: 0.500 µM. On to `CC1C=CC=CC=CC=CC=CC=CC=CC(OC2OC(C)C(O)C(N)C2O)CC2OC(O)(CC(O)CC(O)C(O)CCC(O)CC(O)CC(=O)OC(C)C(C)C1O)CC(O)C2C(=O)NCCN` (stereo not drawn) [BT], for which the “Average MIC” value worked out at 1.750 µM. For `COC(=O)C1(NC(=O)C2C(O)CC3(O)CC(O)CC(O)C(O)CCC(O)CC(O)CC(=O)OC(C)C(C)C(O)C(C)C=CC=CC=CC=CC=CC=CC=CC(OC4OC(C)C(O)C(N)C4O)CC2O3)CNC1` (stereo not drawn) [FC], the “MIC (Average Minimum Inhibition Concentration)” value was 0.516 µM.

Consider `CC1C=CC=CC=CC=CC=CC=CC=CC(OC2OC(C)C(O)C(N)C2O)CC2OC(O)(CC(O)CC(O)C(O)CCC(O)CC(O)CC(=O)OC(C)C(C)C1O)CC(O)C2C(=O)NC(CO)CO` (stereo not drawn) [DD], for which the “MIC (Average Minimum Inhibition Concentration)” value turned out to be 0.375 µM. Take `CC1C=CC=CC=CC=CC=CC=CC=CC(OC2OC(C)C(O)C(N)C2O)CC2OC(O)(CC(O)CC(O)C(O)CCC(O)CC(O)CC(=O)OC(C)C(C)C1O)CC(O)C2C(=O)NCC1CCCO1` (stereo not drawn) [EZ]: the “MIC (Average Minimum Inhibition Concentration)” value worked out at 0.516 µM. As to `CC1C=CC=CC=CC=CC=CC=CC=CC(OC2OC(C)C(O)C(N)C2O)CC2OC(O)(CC(O)CC(O)C(O)CCC(O)CC(O)CC(=O)OC(C)C(C)C1O)CC(O)C2C(=O)NC1(C(N)=O)CC1` (stereo not drawn) [FG], the “MIC (Average Minimum Inhibition Concentration)” value was determined as 0.531 µM. The same measure, in the same setting: in the case of `CC1C=CC=CC=CC=CC=CC=CC=CC(OC2OC(C)C(O)C(N)C2O)CC2OC(O)(CC(O)CC(O)C(O)CCC(O)CC(O)CC(=O)OC(C)C(C)C1O)CC(O)C2C(=O)NC(CO)C(N)=O` (stereo not drawn) [FN] it was 0.238 µM; in that of `CC1C=CC=CC=CC=CC=CC=CC=CC(OC2OC(C)C(O)C(N)C2O)CC2OC(O)(CC(O)CC(O)C(O)CCC(O)CC(O)CC(=O)OC(C)C(C)C1O)CC(O)C2C(=O)NCCCCCO` (stereo not drawn) [FF], 0.531 µM. On the same count and under the same terms, in the case of `COC(=O)C(CCCNC(=N)N)NC(=O)C1C(O)CC2(O)CC(O)CC(O)C(O)CCC(O)CC(O)CC(=O)OC(C)C(C)C(O)C(C)C=CC=CC=CC=CC=CC=CC=CC(OC3OC(C)C(O)C(N)C3O)CC1O2` (stereo not drawn) [DQ] it was 0.406 µM; in that of `CC1C=CC=CC=CC=CC=CC=CC=CC(OC2OC(C)C(O)C(N)C2O)CC2OC(O)(CC(O)CC(O)C(O)CCC(O)CC(O)CC(=O)OC(C)C(C)C1O)CC(O)C2C(=O)NCCN1CCOC1=O` (stereo not drawn) [ER], 0.484 µM. Still for that read-out and setting: the same measure for `CC1C=CC=CC=CC=CC=CC=CC=CC(OC2OC(C)C(O)C(N)C2O)CC2OC(O)(CC(O)CC(O)C(O)CCC(O)CC(O)CC(=O)OC(C)C(C)C1O)CC(O)C2C(=O)N1CCC(N)C1` (stereo not drawn) [FE]: 0.531 µM.

The values are drawn from US20230016424A1, “HYBRID AMIDE DERIVATIVES OF AMPHOTERICIN B” (The Board of Trustees of the University of Illinois, priority 2019, published 2023).
